Target: T1, KRAS G12C (Homo sapiens, UniProt P01116, G12C)
T1 construct: purchased Reactionbiology
Test: KRAS G12C NEA-HTRF experiment (SOS1-catalyzed displacement of GDP by GTP)
Type: biochemical
Excerpt: Raw materials and instruments: KRAS G12C (his-tag) purchased from Reactionbiology; batch number 3496; SOS1 purchased from Reactionbiology; batch number: 3501; GTP purchased from Sigma; article number: G8877; batch number: SLBV1450; Tris-HC1 purchased from Sigma; EDTA purchased from absin; article number: abs42017668; batch number: JE20; NaCl purchased from Sigma; article number: 55886; batch number: SLBW4193; MgCl2 purchased from Shyuanye; article number: R21455; batch number: L07S9G69806; HEPES purchased from Life Technologies; article number: 15630-080; batch number: 2037042; DTT purchased from Thermo Fisher; article number: R0862; batch number: 00608918; Triton X-100 purchased from Sigma; article number: T8787-100 ML; batch number: SLBW7103; DY647-labeled GDP purchased from Jena Bioscience; article number: NU-840-647P1; batch number: BM019-045; Anti-6H1S-Tb purchased from Cisbio; article number: 61H12TLA; batch number: 13A; Bradford Assay Kit purchased from Thermo Fisher; article number: 23246; batch number: UG287474; white opaque 96-well plate purchased from Cisbio; article number: 66PL96025; batch number: N°06; NAP-5 column purchased from GE Healthcare; article number: 17085301; batch number: 16995164; mircoplate reader purchased from PerkinElmer; model: Envision MLD2105-0020; equipment number 1050369. The effect of compounds on SOS1-catalyzed displacement of GDP by GTP on KRAS protein was examined using a homogeneous time-resolved fluorescence (HTRF) method. 30 μM 6×his-tagged KRAS G12C recombinant protein was incubated with 80 μM fluorescent dye DY647-labeled GDP in labeling buffer (1 mM DTT, 7.5 mM EDTA, 25 mM Tris-HCl, 45 mM NaCl) at 20° C. in the dark for 2 hours, purified using NAP-5 column, and then protein quantification was performed with Bradford Assay Kit after purification to determine the concentration of KRAS […] 3.16-fold gradient concentration stock solution of 1000× compound was prepared with DMSO, and diluted 250-fold to 4× compound stock solution with reaction buffer (40 mM HEPES, 10 mM MgCl2, 1 mM DTT, 0.002% Triton X-100). KRAS G12C-GDP/Tb working solution (40 nM KRAS […] Tb) and SOS1/GTP working solution (0.2 μM SOS1, 200 μM GTP) were prepared using the reaction buffer. A white opaque 96-well plate was taken, and 5 μL of 4× compound stock solution and 10 μL of KRAS G12C-GDP/Tb working solution were added to each well. 5 μL of reaction buffer instead of 4x compound stock solution was used in the control well. After incubation in the dark for 15 minutes at 20° C., 5μL of SOS1/GTP working solution was added thereto, and the fluorescence value (excitation wavelength: 320 nm, emission wavelength: 615 nm and 665 nm) was read after incubating at 20° C. in the dark for 2 hours. Another T0 group was set up with 10 μL reaction buffer+10 μL KRAS G12C-GDP/Tb working solution, and the fluorescence value was read directly by the microplate reader. The fluorescence signal ratio RLU=(665 nm signal/615 nm signal)×10^4; and the compound inhibition rate IR (%)=(RLUcompound-RLUcontrol)/(RLUT0-RLUcontrol)×100% were calculated. The IC50 value was calculated by fitting the gradient dilution concentration of compound and the corresponding inhibition rate with the four-parameter method. The NEA activity of the compounds prepared in the above embodiments of the present disclosure was 0.0001 μM to 1 μM; the inhibitory activity of some compounds on KRAS G12C mutant MIA PaCa-2 cells was 0.001 μM to 0.5 μM or 0.001 μM to 0.1 μM.

T1 sequence (P01116 1-188 isoform P01116-2 G12C): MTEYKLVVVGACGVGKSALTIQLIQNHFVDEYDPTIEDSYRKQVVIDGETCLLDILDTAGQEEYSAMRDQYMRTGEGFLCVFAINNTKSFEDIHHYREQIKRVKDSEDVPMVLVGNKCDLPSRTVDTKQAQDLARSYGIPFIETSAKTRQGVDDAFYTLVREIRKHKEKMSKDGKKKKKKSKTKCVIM

Structure (SMILES) | IC50 [nM]
C=CC(=O)N1CCN2C(=O)c3c(N4CCC(O)C4(C)C)nc(-c4c(O)cccc4F)c(Cl)c3OC[C@H]2C1 (stereo partly drawn) [Z241, (6aR)-8-acryloyl-1-(3-hydroxy-2,2-dimethylpyrrolidin-1-yl)-4-chloro-3-(2-fluoro-6-hydroxyphenyl)-6,6a,7,8,9,10-hexahydro-12H-pyrazino[2,1-c]pyrido[3,4-f][1,4]oxazepin-12-one] | 18
C=CC(=O)N1CCN2C(=O)c3c(N4CC[C@@H]5C[C@@H]54)nc(-c4c(O)cccc4F)c(Cl)c3OC[C@H]2C1 (single isomer, unassigned) [Z39-2] | 66
C=CC(=O)N1CCN2C(=O)c3c(N4C[C@@H](CO)CC4(C)C)nc(-c4c(O)cccc4F)c(Cl)c3OC[C@H]2C1 (single isomer, unassigned) [Z240-1] | 11
C=CC(=O)N1CCN2C(=O)c3c(N4CCN(C5COC5)C[C@@H]4C)nc(-c4c(O)cccc4F)c(Cl)c3OC[C@H]2C1 (single isomer, unassigned) [Z239-1] | 124
C=CC(=O)N1CCN2C(=O)c3c(N4C[C@H](N(C)C)C[C@@H]4C)nc(-c4c(O)cccc4F)c(Cl)c3OC[C@H]2C1 [Z237-1, (6aR)-8-acryloyl-4-chloro-1-((2S,4R)-4-(dimethylamino)-2-methylpyrrolidin-1-yl)-3-(2-fluoro-6-hydroxyphenyl)-6,6a,7,8,9,10-hexahydro-12H-pyrazino[2,1-c]pyrido[3,4-f][1,4]oxazepin-12-one] | 122
C=CC(=O)N1CCN2C(=O)c3c(N4CCC[C@@]4(C)CO)nc(-c4c(O)cccc4F)c(Cl)c3OC[C@H]2C1 [Z279-2] | 29
C=CC(=O)N1CCN2C(=O)c3c(N4CC(C)(C)OC[C@@H]4C)nc(-c4c(O)cccc4F)c(Cl)c3OC[C@H]2C1 [Z276-1, (6aR)-8-acryloyl-4-chloro-3-(2-fluoro-6-hydroxyphenyl)-1-((S)-2,2,5-trimethylmorpholino)-6,6a,7,8,9,10-hexahydro-12H-pyrazino[2,1-c]pyrido[3,4-f][1,4]oxazepin-12-one] | 113
C=CC(=O)N1CCN2C(=O)c3c(N4C[C@@](C)(O)CC4(C)C)nc(-c4c(O)cccc4F)c(F)c3OC[C@H]2C1 (single isomer, unassigned) [Z256b-1] | 33
C=CC(=O)N1CCN2C(=O)c3c(N4C[C@](C)(O)CC4(C)C)nc(-c4c(O)cccc4F)c(Cl)c3OC[C@H]2C1 (single isomer, unassigned) [Z243-2] | 76
C=CC(=O)N1CCN2C(=O)c3c(N4Cc5cn(C)nc5C4C)nc(-c4c(O)cccc4F)c(Cl)c3OC[C@H]2C1 (some centres unmarked) [Z291-2] | 18
C=CC(=O)N1CCN2C(=O)c3c(N4CCN(CCOC)C[C@@H]4C)nc(-c4c(O)cccc4F)c(Cl)c3OC[C@H]2C1 [Z257a, (6aR)-8-acryloyl-4-chloro-3-(2-fluoro-6-hydroxyphenyl)-1-((S)-4-(2-methoxyethyl)-2-methylpiperazin-1-yl)-6,6a,7,8,9,10-hexahydro-12H-pyrazino[2,1-c]pyrido[3,4-f][1,4]oxazepin-12-one] | 76
C=CC(=O)N1CCN2C(=O)c3c(N4CC(N(C)CCOC)CC4(C)C)nc(-c4c(O)cccc4F)c(Cl)c3OCC2C1 (single isomer, unassigned) [Z296-1] | 7
C=CC(=O)N1CCN2C(=O)c3c(N4CC[C@@H](OC)C4(C)C)nc(-c4c(O)cccc4F)c(Cl)c3OC[C@H]2C1 (single isomer, unassigned) [Z241a-2] | 5
C=CC(=O)N1CCN2C(=O)c3c(N4C[C@H](CO)CC4(C)C)nc(-c4c(O)cccc4F)c(Cl)c3OC[C@H]2C1 (single isomer, unassigned) [Z240-2] | 11
C=CC(=O)N1CCN2C(=O)c3c(N4CC[C@H](OC)C4(C)C)nc(-c4c(O)cccc4F)c(Cl)c3OC[C@H]2C1 (single isomer, unassigned) [Z241a-1] | 13
C=CC(=O)N1CCN2C(=O)c3c(N4C[C@@H](OC)CC4(C)C)nc(-c4c(O)cccc4F)c(Cl)c3OC[C@H]2C1 (single isomer, unassigned) [Z244-1] | 26

The next lines start with the values.

IC50 [nM] | Structure (SMILES)
98 | C=CC(=O)N1CCN2C(=O)c3c(N4C[C@H](O)CC4(C)C)nc(-c4c(O)ccc(Cl)c4F)c(F)c3OC[C@H]2C1 (single isomer, unassigned) [Z340-2]
43 | C=CC(=O)N1CCN2C(=O)c3c(N4CCOCC4)nc(-c4nc(N)cc(C)c4C(F)(F)F)c(Cl)c3OC[C@H]2C1 [Z314]
15 | C=CC(=O)N1CCN2C(=O)c3c(N4CCN(C)C[C@@H]4C)nc(-c4nc(N)cc(C)c4C(F)(F)F)c(Cl)c3OC[C@H]2C1 [Z328-1, (R)-8-acryloyl-3-(6-amino-4-methyl-3-(trifluoromethyl)pyridin-2-yl)-4-chloro-1-((S)-2,4-dimethylpiperazin-1-yl)-6,6a,7,8,9,10-hexahydro-12H-pyrazino[2,1-c]pyrido[3,4-f][1,4]oxazepin-12-one]
16 | C=CC(=O)N1CCN2C(=O)c3c(N4C[C@@H](N(C)C)CC4(C)C)nc(-c4c(O)cccc4F)c(Cl)c3OC[C@H]2C1 (single isomer, unassigned) [Z324-1]
161 | C=CC(=O)N1CCN2C(=O)c3c(N4CCN(C)C[C@@H]4C)nc(-c4c(F)ccc(F)c4O)c(Cl)c3OC[C@H]2C1 [Z356, (6aR)-8-acryloyl-4-chloro-3-(3,6-difluoro-2-hydroxyphenyl)-1-((S)-2,4-dimethylpiperazin-1-yl)-6,6a,7,8,9,10-hexahydro-12H-pyrazino[2,1-c]pyrido[3,4-f][1,4]oxazepin-12-one]
79 | C=CC(=O)N1CCN2C(=O)c3c(N4CCC(N(C)C)C4(C)C)nc(-c4c(O)cccc4F)c(Cl)c3OC[C@H]2C1 (stereo partly drawn) [Z334, (6aR)-8-acryloyl-4-chloro-1-(3-(dimethylamino)-2,2-dimethylpyrrolidin-1-yl)-3-(2-fluoro-6-hydroxyphenyl)-6,6a,7,8,9,10-hexahydro-12H-pyrazino[2,1-c]pyrido[3,4-f][1,4]oxazepin-12-one]
26 | C=CC(=O)N1CCN2C(=O)c3c(N4CC[C@@H](OC)C4(C)C)nc(-c4c(O)cccc4F)c(F)c3OC[C@H]2C1 (single isomer, unassigned) [Z327-1]
10 | C=CC(=O)N1CCN2C(=O)c3c(N4CC(N5CCOCC5)CC4(C)C)nc(-c4c(O)cccc4F)c(Cl)c3OC[C@H]2C1 (stereo partly drawn) [Z344, (6aR)-8-acryloyl-4-chloro-1-((2,2-dimethyl-4-morpholinopyrrolidin-1-yl))-3-(2-fluoro-6-hydroxyphenyl)-6,6a,7,8,9,10-hexahydro-12H-pyrazino[2,1-c]pyrido[3,4-f][1,4]oxazepin-12-one]
13 | C=CC(=O)N1CCN2C(=O)c3c(N4CCN(C(C)=O)C[C@@H]4C)nc(-c4c(O)cccc4F)c(Cl)c3OC[C@H]2C1 [Z313-1]
35 | C=CC(=O)N1CCN2C(=O)c3c(N4C[C@H](O)CC4(C)C)nc(-c4ccccc4F)c(Cl)c3OC[C@H]2C1 (single isomer, unassigned) [Z325-2]
134 | C=CC(=O)N1CCN2C(=O)c3c(N4CCN(C5CC5)C[C@@H]4C)nc(-c4c(O)cccc4F)c(Cl)c3OC[C@H]2C1 [Z312-1, (6aR)-8-acryloyl-4-chloro-1-((S)-4-cyclopropyl-2-methylpiperazin-1-yl)-3-(2-fluoro-6-hydroxyphenyl)-6,6a,7,8,9,10-hexahydro-12H-pyrazino[2,1-c]pyrido[3,4-f][1,4]oxazepin-12-one]
64 | C=CC(=O)N1CCN2C(=O)c3c(N4CC[C@H](OC)C4(C)C)nc(-c4c(O)cccc4F)c(F)c3OC[C@H]2C1 (single isomer, unassigned) [Z327-2]
58 | C=CC(=O)N1CCN2C(=O)c3c(N4CCN(C)[C@H](C)[C@@H]4C)nc(-c4c(O)cccc4F)c(Cl)c3OC[C@H]2C1 (single isomer, unassigned) [Z308a-1]

Source: US20230203060A1 (GENFLEET THERAPEUTICS (SHANGHAI) INC., priority 2020, published 2023)
